Results published in patent US20240280589A1, “USE OF FIBRONECTIN IN PREDICTING PREECLAMPSIA” (Sinai Health System, priority 2023, published 2024).

How the values were obtained:
Assay type in all cases: cell-based, human
[1] = tested on: placental villous explants; assay: Fibronectin in sEVs from placental villous explant culture; settings: E-PE villous explants maintained at 3% O2, Hinokitiol
Method: Villous explants were isolated and cultured in 12-well plates with mesh inserts, from term control (n=3) and E-PE placentae (n=3). Term explants were maintained at normoxia (8% O2) or hypoxia (3% O2), while E-PE explants were maintained at 3% O2 (constituting their normoxia) and treated with […] Hinokitiol. Following incubation with their respective treatments, explant tissue was snap-frozen in liquid nitrogen for protein extraction and downstream analyses, while small extracellular vesicles (sEVs) were isolated from conditioned media by ultrafiltration using Amicon® Ultra-4 Centrifugal Filter Units (UFC8100, Millipore Sigma). […] Subsequent Western blotting was performed.

preeclampsia pMSCs = assay: Exposure of preeclampsia placental mesenchymal stromal cells (pMSCs)
JEG3 cells [2] = assay: Western blot for fibronectin in sEVs from JEG3 cell conditioned media
Method: Subsequent Western blotting was performed.

JEG3 cells [3] = assay: Immunofluorescence co-localization of fibronectin with CD63/RAB7 in JEG3 cells

CC(C)c1cccc(=O)c(O)c1 [Hinokitiol]
fibronectin increase in explant-derived sEVs [1]: attenuated
fibronectin fibrillar deposition (preeclampsia pMSCs): improved
labile (useable) intracellular iron pool (preeclampsia pMSCs): restored
sEV fibronectin content (JEG3 cells [2]; JEG3 cells at 3% O2, 24 hours, 1 μM, normalized to CD63): significantly reduced sEV fibronectin content to control levels
sEV fibronectin levels (JEG3 cells [2]; JEG3 cells at 21% O2): no discernible effect
Pearson's Correlation Coefficient between fibronectin and CD63 (JEG3 cells [3]; 3% O2 + 1 μM Hinokitiol): 0.31
fibronectin co-localization with late endosomal marker RAB7 and sEV marker CD63 (JEG3 cells [3]; 3% O2, relative to hypoxia alone): attenuated fibronectin co-localization
